Laboratory results taken from patent publication US6589992B2, “Inhibiting collagen-induced platelet aggregation” (Parker Hughes Institute, priority 1999, dated 2003).

Test system: ICR mice
Test: Thromboplastin-induced fatal thromboembolism in mice
Format: in vivo
Details: N=10
Protocol: The mice were challenged with 25 mg/kg thromboplastin (Sigma, St. Louis, Mo.) via a bolus i.v. injection in to the tail vein as previously described (Sato et al., 1998). At the time of thromboembolism-related death, after the thromboplastin injection or elective sacrifice at 48 hours using ketamine/xylazine, all mice were perfused with PBS followed by 4% phosphate buffered formalin. PBS and formalin were pumped through the left ventricle of the heart and allowed to exit through a 3 mm incision through the anterior wall of the right ventricle.

Question: `CC(=O)CC(c1ccccc1)c1c(O)c2ccccc2oc1=O` (centres unmarked) [warfarin, reference compound] was tested. Which “probability of event-free survival after thromboplastin challenge” value (warfarin 3 mg/kg i.p. 18 hours prior) did it give?
Answer: Its value is 10±9%.

Question: What about the median survival time (warfarin 3 mg/kg) of the same compound?
Answer: The median survival time was 5.3 min.
